# Measured values from patent US20180353461A1, “USE OF CANNABINOIDS AS CERAMIDE-GENERATING ANTICANCER AGENTS IN TUMORS OF THE HEMATOPOIETIC AND LYMPHOID TISSUES” (priority 2014, published 2018).
# Experiments:
# [1] = tested on: U266 cells; test: MM xenograft (U266 cells, subcutaneous) in NSG mice; format: in vivo; details: 5 mg/kg WIN-55,212-2 intraperitoneally every 24 h or 48 h
# Method: NOD/scid/IL-2R gammae null (NSG) mice were purchased from Charles River Laboratories International (L'Arbresle, France) and maintained with food and water ad libitum, under specific pathogen-free conditions. When mice were 8-9 weeks old, human tumor xenografts were induced by subcutaneous inoculation in suprascapular area of MM cell line U266 cells. To establish tumor, 5×10e6 cells were resuspended in 100 ul RPMI medium without serum and 100 ul of Matrigel (BD Biosciences). To easy visualization the hair was trimmed from the site of inoculation. Closely second week following implantation, when tumors became palpable (>0.5 cm), mice were randomly assigned to the following groups (10 mice per group): group 1 received intraperitoneally 5 mg/kg WIN-55,212-2 every 24 h, group 2 received the treatment every 48 hl and group 3 received vehicle. […] Tumor growth was assessed three times each week following tumor implantation. Two bisecting diameters of each tumor were measured with calipers, and the volume was calculated using the formula length x (width) e2×0.4 mm3. […]
# The administration with cannabinoids inhibits remarkably the growth of tumor in vivo. Finally, we analyzed the anti-tumor effect of the cannabinoids in vivo, using a model of human MM xenografted in immunodeficient mice NOD/SCID. […]
# [2] = tested on: HL60 cells; test: SPT expression, ceramide staining and SPT inhibition in HL60 cells; format: cell-based, human
# Method: Extracted proteins (15-25 ug/well) were separated by sodium dodecyl sulfate-polyacrylamide gel electrophoresis (SDS/PAGE) in pre-cast polyacrylamide gels AnykD (Bio-Rad Laboratories, Hercules, Calif., USA) under reducing and denaturing conditions. Electrophoretic run was performed at a constant current of 15 mA per gel in a Mini-Protean® Tetra Cell (Bio-Rad Laboratories) and were electrophoretically transferred onto PVDF membranes using Trans-Blot® Turbo™ System (Bio-Rad Laboratories). Blocking was performed with 2% bovine serum albumin [(BSA), Santa Cruz Biotechnology] in Tween-Tris buffer saline (TTBS). Membranes were incubated overnight at 4° C. with corresponding primary antibody in TTBS.
# Cells were grown on glass cover slips (Menzel-Glaser, Thermo Fisher Scientific) in the presence or absence of WIN 55,212-2. The cover slips were then washed twice in phosphate-buffered saline (PBS), and the cells were fixed in cold 4% paraformaldehyde for 10 min, treated with sodium borohydride and, permeabilized in 0.02% Triton X-100 in PBS with 10% normal donkey serum for blocking. Cell nuclei were stained with diamidino-2-phenylindole [(DAPI), Pierce, Thermo Fisher Scientific)]. Then, cells were incubated with the anti-CB1 or anti-CB2 receptor antibodies or anti-ceramide in blocking buffer overnight at 4° C. in a humid chamber (Simport, Beloeil, QC, Canada). After washing with PBS, samples were further incubated for 90 min with Alexa 647- or Alexa 488-conjugated donkey secondary antibody.
# After final washing in PBS, the cover slips were dried and mounted on slides using Fluoromount Aqueous Mounting Medium (Sigma-Aldrich). Changes in the protein expression were visualized by fluorescence microscopy using a specific excitation for each antibody. Digital images were acquired with CellSens Dimension Software (Olympus) and manipulated with Photoshop CS2 Software (Adobe Systems Inc). There was no labeling when the primary antibody was omitted (data not shown).
# Additionally, de novo synthesis of ceramides also contribute to the apoptotic process triggered by cannabinoids in AML. We examined whether ceramides participate in the cannabinoid-induced apoptosis in leukemic cells. To this end, we analyzed the expression of serine palmitoyltransferase (SPT), the enzyme that catalyses the rate-limiting step of ceramide synthesis de novo. […] To ensure that this up-regulation of SPT entails an increased of ceramide synthesis, we examined the expression of ceramide by immunohistochemistry. […] Furthermore, to strengthen the engagement of the ceramide in cannabinoid-induced apoptosis, we analyzed the cannabinoid-induce apoptosis after inhibition of ceramide synthesis with Myoricin, a selective SPT inhibitor.
# [3] = tested on: HL60 cells; test: Mitochondrial superoxide / ROS in HL60 cells (MitoSOX assay); format: cell-based, human
# Method: Mitochondrial membrane potential and superoxide detection Cells (10e6 cells per assay) were treated with a concentration of WIN-55 for 15, 30, 45 and 60 min at 37° C. Fluorochromes 10 μM TMRM [(tetramethylrhodamine-ethyl-ester-perchlorate), Santa Cruz Biotechnology Inc.] to detect membrane potential, or 5 μM MitoSOX [Molecular Probes (Invitrogen)] to detect mitochondrial superoxide, were added for the last 15 min of treatment. CCCP (uncoupler of oxidative phosphorylation) or H2O2 (oxidant agent) was used as a positive control of the techniques respectively (Labbe et al., 2008). The fluorescence detection of TMRM was measured for flow citometry. Fluorescent intensity was quantified and analyzed using Infinicyt™ Software (Cytognos, Salamanca, Spain).
# The MitoSOX signal was detected using a ‘Fluoroscan’ multi-well plate reader (Thermo Labsystems, Thermo Scientific), excitation/emission maxima of 543/593 nm.
# To delve into the processes that participate in cannabinoid-induced apoptosis, we evaluated the potential of mitochondrial membrane potential in HL60 cells after treatment with WIN-55, at indicated times, using TMRE assay by flow citometry. We observed that cannabinoids induced a drop of Δψm in HL60 cells (FIG. 20a). The loss of potential started as early as 15 min after exposure to the cannabinoid, and continued decreasing over time. […]
smiles,measurement,setting,value
"CS(=O)(=O)O.Cc1c(C(=O)c2cccc3ccccc23)c2cccc3c2n1[C@H](CN1CCOCC1)CO3 [WIN-55, (R)-(+)-[2,3-dihydro-5-methyl-3-(4-morpholinylmethyl)-pyrrolo-[1,2,3]-1,4-benzoxazin-6-yl]-1-naphthalenylmethanone mesylate]",tumor volume / tumor growth compared to vehicle-treated counterparts,[1],inhibit tumor growth
same,SPT expression level in leukemic cells,[2]; HL60,enhanced
same,"SPT, 2 h after exposure",[2]; HL60,moderate increase
same,"ceramide by immunohistochemistry, compared to untreated cells","[2]; HL60, 50 uM, 18 hours",remarkable increase
same,ROS by MitoSOX assay,[3],increase
